Structures can show the parent of a compound that is named as a salt. Where two headings read alike, the source gives them in different places.
Biological target: human σ1 receptor (Homo sapiens, UniProt Q99720)
Test: biochemical
Type: binding
Parameters: μ and σ1 dual binding: key to the marks not given beside the values
[1] = combined class from Ki-σ1 (human σ1 receptor, A1) and Ki-μ (human μ-opioid receptor, A2) radioligand binding
[2] = read-out: μ and σ1 dual binding

Sequence of human σ1 receptor (Q99720 whole entry): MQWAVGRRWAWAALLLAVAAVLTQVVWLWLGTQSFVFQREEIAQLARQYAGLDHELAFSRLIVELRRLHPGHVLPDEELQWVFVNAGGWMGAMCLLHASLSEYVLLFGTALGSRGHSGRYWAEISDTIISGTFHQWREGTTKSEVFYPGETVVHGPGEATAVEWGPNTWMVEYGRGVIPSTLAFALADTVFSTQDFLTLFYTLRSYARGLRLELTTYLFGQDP

## CC1OC2(CCN(CC(O)c3ccccc3)CC2)CN(c2ccccc2)C1=O (mixture of isomers) [Example 150, 9-(2-hydroxy-2-phenylethyl)-2-methyl-4-phenyl-1-oxa-4,9-diazaspiro[5.5]undecan-3-one]
  Ki: > 500 nM

## COc1ccc(N2CC3(CCN(CCc4ccccc4)CC3)OC(C)C2=O)cc1.Cl (stereo not shown) [Example 1, 4-(4-methoxyphenyl)-2-methyl-9-phenethyl-1-oxa-4,9-diazaspiro[5.5]undecan-3-one hydrochloride]
  μ and σ1 dual binding: ++

## COc1ccccc1N1CC2(CCN(Cc3ccccc3)CC2)OCC1=O [Example 2, 9-benzyl-4-(2-methoxyphenyl)-1-oxa-4,9-diazaspiro[5.5]undecan-3-one]
[1]
  μ and σ1 dual binding: ++

## Cl.O=C1COC2(CCN(Cc3ccccc3)CC2)CN1c1ccccc1 [Example 3, 9-benzyl-4-phenyl-1-oxa-4,9-diazaspiro[5.5]undecan-3-one hydrochloride]
  μ and σ1 dual binding: ++

## COc1ccccc1N1CC2(CCN(CCc3ccccc3)CC2)OCC1=O [Example 4, 4-(2-methoxyphenyl)-9-phenethyl-1-oxa-4,9-diazaspiro[5.5]undecan-3-one]
[1]
  μ and σ1 dual binding: ++

## O=C1COC2(CCN(CCc3ccccc3)CC2)CN1c1ccccc1 [Example 5, 9-phenethyl-4-phenyl-1-oxa-4,9-diazaspiro[5.5]undecan-3-one]
[2]
  Ki: < 500 nM

## COc1cccc(N2CC3(CCN(Cc4ccccc4)CC3)OCC2=O)c1 [Example 6, 9-benzyl-4-(3-methoxyphenyl)-1-oxa-4,9-diazaspiro[5.5]undecan-3-one]
[1]
  μ and σ1 dual binding: ++

## O=C1COC2(CCN(Cc3ccccc3)C2)CN1c1ccccc1 (stereo not shown) [Example 7, 2-benzyl-9-phenyl-6-oxa-2,9-diazaspiro[4.5]decan-8-one]
[1]
  μ and σ1 dual binding: ++

## COc1cccc(N2CC3(CCN(CCc4ccccc4)CC3)OCC2=O)c1 [Example 8, 4-(3-methoxyphenyl)-9-phenethyl-1-oxa-4,9-diazaspiro[5.5]undecan-3-one]
[1]
  μ and σ1 dual binding: ++

## CC1OC2(CCN(CCc3ccccc3)CC2)CN(c2ccccc2)C1=O (stereo not shown) [Example 9, 2-methyl-9-phenethyl-4-phenyl-1-oxa-4,9-diazaspiro[5.5]undecan-3-one]
[2]
  Ki: < 100 nM

## C[C@H]1OC2(CCN(CCc3ccccc3)CC2)CN(c2ccccc2)C1=O [Example 10a, (R)-2-methyl-9-phenethyl-4-phenyl-1-oxa-4,9-diazaspiro[5.5]undecan-3-one]
[2]
  Ki: < 100 nM

## C[C@@H]1OC2(CCN(CCc3ccccc3)CC2)CN(c2ccccc2)C1=O [Example 10b, (S)-2-methyl-9-phenethyl-4-phenyl-1-oxa-4,9-diazaspiro[5.5]undecan-3-one]
[2]
  Ki: < 100 nM

## COCC1OC2(CCN(CCc3ccccc3)CC2)CN(c2ccccc2)C1=O (stereo not shown) [Example 11, 2-(methoxymethyl)-9-phenethyl-4-phenyl-1-oxa-4,9-diazaspiro[5.5]undecan-3-one]
[2]
  Ki: < 100 nM

## COC[C@@H]1OC2(CCN(CCc3ccccc3)CC2)CN(c2ccccc2)C1=O [Example 12a, (S)-2-(methoxymethyl)-9-phenethyl-4-phenyl-1-oxa-4,9-diazaspiro[5.5]undecan-3-one]
[2]
  Ki: < 500 nM

## COC[C@H]1OC2(CCN(CCc3ccccc3)CC2)CN(c2ccccc2)C1=O [Example 12b, (R)-2-(methoxymethyl)-9-phenethyl-4-phenyl-1-oxa-4,9-diazaspiro[5.5]undecan-3-one]
[2]
  Ki: < 100 nM

## CCC1OC2(CCN(CCc3ccccc3)CC2)CN(c2ccccc2)C1=O (stereo not shown) [Example 13, 2-ethyl-9-phenethyl-4-phenyl-1-oxa-4,9-diazaspiro[5.5]undecan-3-one]
[2]
  Ki: < 100 nM

## COC(=O)CC1OC2(CCN(CCc3ccccc3)CC2)CN(c2ccccc2)C1=O (stereo not shown) [Example 14, methyl 2-(3-oxo-9-phenethyl-4-phenyl-1-oxa-4,9-diazaspiro[5.5]undecan-2-yl)acetate hydrochloride]
[2]
  Ki: < 100 nM

## COc1cccc(N2CC3(CCN(CCc4ccccc4)CC3)OC(C)C2=O)c1 (stereo not shown) [Example 15, 4-(3-methoxyphenyl)-2-methyl-9-phenethyl-1-oxa-4,9-diazaspiro[5.5]undecan-3-one hydrochloride]
[2]
  Ki: < 500 nM

## CC1OC2(CCN(Cc3ccccc3)CC2)CN(c2ccccc2)C1=O.Cl (stereo not shown) [Example 16, 9-benzyl-2-methyl-4-phenyl-1-oxa-4,9-diazaspiro[5.5]undecan-3-one hydrochloride]
  μ and σ1 dual binding: ++

## CC(C)C1OC2(CCN(CCc3ccccc3)CC2)CN(c2ccccc2)C1=O (stereo not shown) [Example 17, 2-isopropyl-9-phenethyl-4-phenyl-1-oxa-4,9-diazaspiro[5.5]undecan-3-one hydrochloride]
[2]
  Ki: < 100 nM

## CC1(C)OC2(CCN(CCc3ccccc3)CC2)CN(c2ccccc2)C1=O [Example 18, 2,2-dimethyl-9-phenethyl-4-phenyl-1-oxa-4,9-diazaspiro[5.5]undecan-3-one]
[2]
  Ki: < 100 nM

## O=C1C(COCc2ccccc2)OC2(CCN(CCc3ccccc3)CC2)CN1c1ccccc1 (stereo not shown) [Example 19, 2-((benzyloxy)methyl)-9-phenethyl-4-phenyl-1-oxa-4,9-diazaspiro[5.5]undecan-3-one hydrochloride]
[2]
  Ki: < 100 nM

## CC1OC2(CCN(CCc3ccccc3)CC2)CN(c2ccn(C)n2)C1=O.Cl (stereo not shown) [Example 20, 2-methyl-4-(1-methyl-1H-pyrazol-3-yl)-9-phenethyl-1-oxa-4,9-diazaspiro[5.5]undecan-3-one hydrochloride]
  μ and σ1 dual binding: ++

## C=C1OC2(CCN(CCc3ccccc3)CC2)CN(c2ccccc2)C1=O [Example 21, 2-methylene-9-phenethyl-4-phenyl-1-oxa-4,9-diazaspiro[5.5]undecan-3-one]
[2]
  Ki: > 500 nM

## C=C1OC2(CCN(CCc3ccccc3)CC2)CN(c2ccccc2F)C1=O [Example 22, 4-(2-fluorophenyl)-2-methylene-9-phenethyl-1-oxa-4,9-diazaspiro[5.5]undecan-3-one]
[2]
  Ki: > 500 nM

## CC1OC2(CCN(CCc3ccc([N+](=O)[O-])cn3)CC2)CN(c2ccccc2)C1=O (stereo not shown) [Example 23, 2-methyl-9-(2-(5-nitropyridin-2-yl)ethyl)-4-phenyl-1-oxa-4,9-diazaspiro[5.5]undecan-3-one]
[2]
  Ki: > 500 nM

## CC1OC2(CCN(CCc3ccc([N+](=O)[O-])cn3)CC2)CN(c2ccccc2F)C1=O (stereo not shown) [Example 24, 4-(2-fluorophenyl)-2-methyl-9-(2-(5-nitropyridin-2-yl)ethyl)-1-oxa-4,9-diazaspiro[5.5]undecan-3-one]
[2]
  Ki: > 500 nM

## CC1OC2(CCN(CCc3ncccc3[N+](=O)[O-])CC2)CN(c2ccccc2F)C1=O (stereo not shown) [Example 25, 4-(2-fluorophenyl)-2-methyl-9-(2-(3-nitropyridin-2-yl)ethyl)-1-oxa-4,9-diazaspiro[5.5]undecan-3-one]
[2]
  Ki: > 500 nM

## CC1OC2(CCN(CCc3ncccn3)CC2)CN(c2ccccc2)C1=O (stereo not shown) [Example 26, 2-methyl-4-phenyl-9-(2-(pyrimidin-2-yl)ethyl)-1-oxa-4,9-diazaspiro[5.5]undecan-3-one hydrochloride]
[2]
  Ki: > 500 nM

## CC1OC2(CCN(CCc3cccnc3[N+](=O)[O-])CC2)CN(c2ccccc2)C1=O (stereo not shown) [Example 27, 2-methyl-9-(2-(2-nitropyridin-3-yl)ethyl)-4-phenyl-1-oxa-4,9-diazaspiro[5.5]undecan-3-one]
[2]
  Ki: > 500 nM

## CC1OC2(CCN(CCc3cc(C(F)(F)F)ccn3)CC2)CN(c2ccccc2)C1=O (stereo not shown) [Example 28, 2-methyl-4-phenyl-9-(2-(4-(trifluoromethyl)pyridin-2-yl)ethyl)-1-oxa-4,9-diazaspiro[5.5]undecan-3-one hydrochloride]
  Ki: < 100 nM

## CC1OC2(CCN(CCc3cccc(N)n3)CC2)CN(c2ccccc2)C1=O (stereo not shown) [Example 29, 9-(2-(6-aminopyridin-2-yl)ethyl)-2-methyl-4-phenyl-1-oxa-4,9-diazaspiro[5.5]undecan-3-one]
  Ki: < 500 nM

## CC1OC2(CCN(CCc3cc(N)ccn3)CC2)CN(c2ccccc2)C1=O (stereo not shown) [Example 30, 9-(2-(4-aminopyridin-2-yl)ethyl)-2-methyl-4-phenyl-1-oxa-4,9-diazaspiro[5.5]undecan-3-one hydrochloride]
[2]
  Ki: > 500 nM

## CC1OC2(CCN(CCc3cccc(C(F)(F)F)n3)CC2)CN(c2ccccc2F)C1=O (stereo not shown) [Example 31, 4-(2-fluorophenyl)-2-methyl-9-(2-(6-(trifluoromethyl)pyridin-2-yl)ethyl)-1-oxa-4,9-diazaspiro[5.5]undecan-3-one hydrochloride]
  Ki: < 500 nM

## CC1OC2(CCN(CCc3ccnc(N)c3)CC2)CN(c2ccccc2)C1=O (stereo not shown) [Example 32, 9-(2-(2-aminopyridin-4-yl)ethyl)-2-methyl-4-phenyl-1-oxa-4,9-diazaspiro[5.5]undecan-3-one]
[1]
  μ and σ1 dual binding: ++

## CC1OC2(CCN(CCc3ncccc3C(F)(F)F)CC2)CN(c2ccccc2)C1=O (stereo not shown) [Example 33, 2-methyl-4-phenyl-9-(2-(3-(trifluoromethyl)pyridin-2-yl)ethyl)-1-oxa-4,9-diazaspiro[5.5]undecan-3-one hydrochloride]
  Ki: < 500 nM

## CC1OC2(CCN(CCc3ccc(C(F)(F)F)cn3)CC2)CN(c2ccccc2)C1=O (stereo not shown) [Example 34, 2-methyl-4-phenyl-9-(2-(5-(trifluoromethyl)pyridin-2-yl)ethyl)-1-oxa-4,9-diazaspiro[5.5]undecan-3-one hydrochloride]
[2]
  Ki: > 500 nM

## COc1ccnc(CCN2CCC3(CC2)CN(c2ccccc2)C(=O)C(C)O3)c1 (stereo not shown) [Example 35, 9-(2-(4-methoxypyridin-2-yl)ethyl)-2-methyl-4-phenyl-1-oxa-4,9-diazaspiro[5.5]undecan-3-one]
[1]
  μ and σ1 dual binding: ++

## CC1OC2(CCN(CCc3ccc(C#N)cn3)CC2)CN(c2ccccc2)C1=O (stereo not shown) [Example 36, 6-(2-(2-methyl-3-oxo-4-phenyl-1-oxa-4,9-diazaspiro[5.5]undecan-9-yl)ethyl)nicotinonitrile hydrochloride]
[2]
  Ki: > 500 nM

## CC1OC2(CCN(CCc3ncccc3Cl)CC2)CN(c2ccccc2)C1=O (stereo not shown) [Example 37, 9-(2-(3-chloropyridin-2-yl)ethyl)-2-methyl-4-phenyl-1-oxa-4,9-diazaspiro[5.5]undecan-3-one hydrochloride]
  Ki: < 500 nM

From patent US10703765B2 (priority 2014, dated 2020)
